Test system: MDA-MB-435 cells
Assay: DNA synthesis arrest by 3H-uptake (Example 8)
Format: cell-based, human
Conditions: Homo sapiens; MDA-MB-435; 2% serum; 3H-uptake at one day treatment

## Cc1c(C)c2c(c(C)c1OCC(=O)O)CC[C@@](C)(CCC[C@H](C)CCC[C@H](C)CCCC(C)C)O2 [Compound 1, 2,5,7,8-tetramethyl-(2R-(4R,8R,12-trimethyltridecyl)chroman-6-yloxy)acetic acid]
  EC50: 15 µM

— patent publication US8148424B2, “Tocopherols, tocotrienols, other chroman and side chain derivatives and uses thereof” (Research Development Foundation, priority 1998, dated 2012)
